Results: US20260193283A1, “CARBOXAMIDE DERIVATIVE HAVING RSK INHIBITORY EFFECT, PHARMACEUTICAL COMPOSITION COMPRISING SAME, AND USE THEREOF” (KINOTECK THERAPEUTICS CO., LTD., priority 2022, published 2026)
pIC50: −log10 of the molar value.

Assays:
RSK2 kinase = molecular target: T1, RSK2 kinase (Homo sapiens, UniProt P51812); assay: HTRF KinEASE-STK assay of RSK2 kinase inhibition in vitro; assay type: biochemical; conditions: 0.18 nM RSK2 recombinase, 10 μM ATP, read-out: IC50, in vitro inhibitory activity on RSK2 kinase
T1 construct: purchased Carna 01-150
T1 sequence (P51812 whole entry): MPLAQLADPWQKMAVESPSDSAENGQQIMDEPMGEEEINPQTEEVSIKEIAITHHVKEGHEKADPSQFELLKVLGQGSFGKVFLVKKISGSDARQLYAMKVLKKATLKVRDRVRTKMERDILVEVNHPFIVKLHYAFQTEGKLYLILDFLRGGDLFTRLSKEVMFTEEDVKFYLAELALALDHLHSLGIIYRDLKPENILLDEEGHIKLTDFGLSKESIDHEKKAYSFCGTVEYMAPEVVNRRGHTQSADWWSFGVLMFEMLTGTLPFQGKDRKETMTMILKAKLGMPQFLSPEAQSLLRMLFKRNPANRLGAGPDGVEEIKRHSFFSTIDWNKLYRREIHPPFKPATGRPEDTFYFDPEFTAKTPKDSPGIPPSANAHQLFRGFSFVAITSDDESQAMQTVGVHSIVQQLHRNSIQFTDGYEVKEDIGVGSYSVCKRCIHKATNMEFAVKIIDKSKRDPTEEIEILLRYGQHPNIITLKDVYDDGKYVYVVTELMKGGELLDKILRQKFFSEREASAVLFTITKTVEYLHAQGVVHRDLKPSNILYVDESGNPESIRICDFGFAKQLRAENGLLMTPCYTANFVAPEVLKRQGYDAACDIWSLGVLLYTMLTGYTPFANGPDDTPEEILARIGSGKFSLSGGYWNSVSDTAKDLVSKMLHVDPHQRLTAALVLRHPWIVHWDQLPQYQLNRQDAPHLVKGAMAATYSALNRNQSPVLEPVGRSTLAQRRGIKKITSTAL
Experimental: The inhibitory effect of small molecule compounds on RSK2 kinase was detected using HTRF KinEASE-STK assay. […] Specifically, firstly, 2.5×RSK2 recombinase and 5×inhibitor were added to a buffer system in a 384 well plate, and incubated at room temperature for 10 minutes, negative control wells without enzyme and positive control wells without compounds were set at the same time, then, 2.5×peptide substrate and ATP were added, and then the reaction began.

[1] = Pharmacokinetic study in mice; assay type: in vivo; conditions: mouse; male ICR mice, oral gavage administration, 10 mg/kg, plasma
Experimental: Pharmacokinetic experiments in mice were conducted using male ICR mice weighed 20-25 g, provided by the Experimental Animal Management Department of Shanghai Family Planning Scientific Research Institute. 3 mice were taken and fasted overnight, and then administered orally by gavage (10 mg/kg). Blood samples were collected before administration, at 15 and 30 minutes as well as 1, 2, 4, 8, and 24 hours after administration; in addition, another 3 mice were taken and administered intravenously (1 mg/kg), and blood samples were collected before administration, at 15 and 30 minutes as well as 1, 2, 4, 8, and 24 hours after administration. blood sample was centrifuged at 6800 g, 2-8° C. for 6 minutes, and then the plasma was collected and stored at −80° C. Plasma at each time point were added 10-20 times the amount of methanol or acetonitrile solution containing internal standard, and mixed by vortex for 1 minute, centrifuged at 18000 rpm at 4° C. for 10 minutes, and then the supernatant was taken to analyze by LC-MS/MS directly. The main pharmacokinetic parameters were analyzed using WinNonlin 7.0 software for non compartmental model analysis.

MDA-MB-453 cells = assay: Triple negative breast cancer cell proliferation inhibition (CCK-8, 5 days); assay type: cell-based; conditions: Homo sapiens, 120 h, 5 days incubation, read-out: IC50, proliferation inhibitory activity on MDA-MB-453
Experimental: The compound or vehicle control (DMSO) was diluted in culture medium in a 96 well plate, with the final concentrations of 50, 25, 12.5, 6.25, 3.13, 1.56, 0.78, 0.39, 0.2, and 0.1 μM. 1×10^3 MDA-MB-453 cells were inoculated into each well, and the plate was incubated in the incubator for 5 days. After the incubation period, cell survival was quantified using Cell Counting Kit-8 (CCK-8) reagent. In short, the cells were incubated with CCK8 for 2-4 hours, and then the absorbance at 450 nm and 650 nm was measured. CCK-8 is WST-8 (chemical name: 2-(2-methoxy-4-nitrophenyl)-3-(4-nitrophenyl)-5-(2,4-disulfonate benzene)-2H tetrazole monosodium salt), which is reduced to a highly water-soluble yellow formazan dye by dehydrogenases in cells under the action of electron carrier 1-methoxy-5-methylphenazinium sulfate dimethyl ester (1-Methoxy PMS). The number of generated formazan dye substances is directly proportional to the number of live cells, so this characteristic can be used to calculate the survival percentage, as shown in the following equation:
[formula] • As: experimental well (the treatment wells containing cells, different concentrations of drug) • Ab: solvent control well (solvent treatment wells containing cells, 0 concentration of drug) • Ac: blank well (well without cells and drugs)
The cell survival rate data and corresponding compound concentrations were input into GraphPad Prism software to fit and calculate IC50 values.

| SMILES | pIC50 (RSK2 kinase) | other results |
| --- | --- | --- |
| C[C@H]1Cn2c(cc3ccc(C(=O)Nc4cnn(Cc5ccc(C(C)(C)O)nc5)c4)nc32)C(=O)N1 [Compound 14] | 8.80 |  |
| C[C@@H]1CNC(=O)c2cc3ccc(C(=O)Nc4cnn(Cc5ccc(N)cc5)c4)c(F)c3n21 [Compound 7, (R)—N-(1-(4-aminobenzyl)-1H-pyrazol-4-yl)-6-fluoro-4-methyl-1-oxo-1,2,3,4-tetrahydropyrazino [1,2-a]indole-7-carboxamide] | 7.00 |  |
| C[C@@H]1NC(=O)c2cc3ccc(C(=O)Nc4cnn(Cc5ccc(C(C)(C)O)nc5)c4)nc3n2[C@@H]1C [Compound 12] | 9.37 |  |
| C[C@@H]1CNC(=O)c2cc3ccc(C(=O)Nc4cnn(Cc5ccc(N)cc5)c4)nc3n21.Cl [Control Compound II, reference compound] | 8.97 | AUC(0-t) [1]: 4610 ng·h/mL; Cmax [1]: 3420 ng/mL; Tmax [1]: 25.2 min; half-life [1]: 49.2 min; pIC50 (MDA-MB-453 cells): 5.34 |
| C[C@@H]1CNC(=O)c2cc3ccc(C(=O)Nc4cnn(Cc5ccnc(C(C)(C)O)c5)c4)nc3n21 [Compound 4] | 9.38 | pIC50 (MDA-MB-453 cells): 5.57 |
| C[C@@H]1CNC(=O)c2cc3ccc(C(=O)Nc4cnn(Cc5ccc(S(C)(=N)=O)cc5)c4)nc3n21 (some centres unmarked) [Compound 3] | 9.62 |  |
| [2H]C([2H])([2H])C(O)(c1ccc(Cn2cc(NC(=O)c3ccc4cc5n(c4n3)[C@H](C)CNC5=O)cn2)cn1)C([2H])([2H])[2H] [Compound 17] | 9.66 |  |
| C[C@@H]1CNC(=O)c2cc3ccc(C(=O)Nc4cnn(Cc5ccc(C6(O)CCC6)nc5)c4)nc3n21 [Compound 11] | 9.54 |  |

Continued by rising pIC50 (RSK2 kinase), values first:

| pIC50 (RSK2 kinase) | SMILES | other results |
| --- | --- | --- |
| 6.76 | C[C@@H]1CNC(=O)c2cc3cc(F)c(NC(=O)c4cnn(Cc5ccc(N)cc5)c4)nc3n21 [Compound 6, (R)-1-(4-aminobenzyl)-N-(3-fluoro-9-methyl-6-oxo-6,7,8,9-tetrahydropyridino [3′, 2″: 4,5]pyrrolo [1,2-a]pyrazin-2-yl)-1H-pyrazole-4-carboxamide] |  |
| 7.37 | Cc1cc(NC(=O)c2ccc3cc4n(c3n2)[C@H](C)CNC4=O)nn1Cc1ccc(C(C)(C)O)nc1 [Compound 9] |  |
| 8.27 | C[C@@H]1CNC(=O)c2cc3ccc(C(=O)Nc4cnn(Cc5ccc(C(C)(C)O)nc5)c4)c(F)c3n21 [Compound 13] |  |
| 9.10 | CC(c1ccc(C(C)(C)O)nc1)n1cc(NC(=O)c2ccc3cc4n(c3n2)[C@H](C)CNC4=O)cn1 (stereo partly drawn) [Compound 8, (9R)—N-(1-(1-(6-(2-hydroxyprop-2-yl)pyridin-3-yl)ethyl)-1H-pyrazol-4-yl)-9-methyl-6-oxo-6,7,8,9-tetrahydropyridino [3′, 2′: 4,5]pyrrolo [1,2-a]pyrazine-2-carboxamide] | pIC50 (MDA-MB-453 cells): 5.25 |
| 9.36 | C[C@@H]1CNC(=O)c2cc3ccc(C(=O)Nc4cnn(Cc5ccc(P(C)(C)=O)cc5)c4)nc3n21 [Compound 1, (R)—N-(1-(4-(dimethylphosphoryl)benzyl)-1H-pyrazol-4-yl)-9-methyl-6-oxo-6,7,8,9-tetrahydropyridino[3′, 2′: 4,5]pyrrolo [1,2-a]pyrazine-2-carboxamide] |  |
| 9.46 | C[C@@H]1CNC(=O)c2cc3ccc(C(=O)Nc4cnn(Cc5ccc(C(C)(C)O)nc5)c4)nc3n21 [Compound 5] | AUC(0-t) [1]: 35100 ng·h/mL; Cmax [1]: 17900 ng/mL; Tmax [1]: 15 min; half-life [1]: 94.2 min; pIC50 (MDA-MB-453 cells): 5.69 |
| 9.51 | C[C@@H]1CNC(=O)c2cc3ccc(C(=O)Nc4cnn(Cc5ccc(N=S(C)(C)=O)cc5)c4)nc3n21 [Compound 2, (R)—N-(1-(4-((dimethyl (oxo)-λ^6-sulfanylidene)amino)benzyl)-1H-pyrazol-4-yl)-9-methyl-6-oxo-6,7,8,9-tetrahydropyridino [3′,2′: 4,5]pyrrolo [1,2-a]pyrazine-2-carboxamide] |  |
| 9.96 | C[C@@H]1CNC(=O)c2cc3ccc(C(=O)Nc4cnn(Cc5ccc(C6(O)CC6)nc5)c4)nc3n21 [Compound 10] |  |
| 10.10 | C[C@@H]1NC(=O)c2cc3ccc(C(=O)Nc4cnn(Cc5cnc(C(C)(C)O)c(F)c5)c4)nc3n2[C@@H]1C [Compound 16, (8S, 9R)—N-(1-((5-fluoro-6-(2-hydroxyprop-2-yl)pyridin-3-yl)methyl)-1H-pyrazol-4-yl)-8,9-dimethyl-6-oxo-6,7,8,9-tetrahydropyridino [3′, 2′: 4,5]pyrrolo [1,2-a]pyrazine-2-carboxamide] |  |
| 10.10 | C[C@@H]1CNC(=O)c2cc3ccc(C(=O)Nc4cnn(Cc5cnc(C(C)(C)O)c(F)c5)c4)nc3n21 [Compound 15, (R)—N-(1-((5-fluoro-6-(2-hydroxyprop-2-yl)pyridin-3-yl)methyl)-1H-pyrazol-4-yl)-9-methyl-6-oxo-6,7,8,9-tetrahydropyridino [3, 2′: 4,5]pyrrolo [1,2-a]pyrazine-2-carboxamide] | AUC(0-t) [1]: 99300 ng·h/mL; Cmax [1]: 22800 ng/mL; Tmax [1]: 30 min; half-life [1]: 131 min; pIC50 (MDA-MB-453 cells): 5.61 |
